Test system: S. aureus
Test: modified MIC assay, bactericidal activity of eluents from CPP mix cements
Format: cell-based
Conditions: EM eluted from cement or gel
Description: A modified minimum inhibitory concentration (MIC) assay was developed to measure the bactericidal activity of erythromycin eluted from the CPP mix cements. Briefly, a Mueller-Hinton broth inoculated with S. aureus […] was cultured at about 37° C. until an absorbance reading of about 0.08 to about 0.1 was attained at 625 nm, corresponding to roughly 1-2×10^8 CFU/ml. Then about 200 μl of eluents from CPP mix cements collected at various time points was added into about 800 μL of the bacterial broth and incubation continued at about 37° C. for about 6 hours, followed by OD measurement at about 625 nm. The MIC was determined by the lowest concentration that inhibited the growth of bacterium as characterized by a lack of turbidity and lower OD readings. Bacterial culture in Mueller Hinton broth without erythromycin was included as a positive control. Bactericidal activity assays were conducted in duplicate for both the blank and testing samples.

In the case of `CC[C@H]1OC(=O)[C@H](C)[C@@H](O[C@H]2C[C@@](C)(OC)[C@@H](O)[C@H](C)O2)[C@H](C)[C@@H](O[C@@H]2O[C@H](C)C[C@H](N(C)C)[C@H]2O)[C@](C)(O)C[C@@H](C)C(=O)[C@H](C)[C@@H](O)[C@]1(C)O` [EM, erythromycin], the “bactericidal activity / stability of eluted EM” value is reported as “stable and active”.

Reference: patent publication US10632227B2, “Method of making injectable cements” (Wayne State University, priority 2015, dated 2020)
